# Reference: ChEMBL document CHEMBL5390204, “Persephacin Is a Broad-Spectrum Antifungal Aureobasidin Metabolite That Overcomes Intrinsic Resistance in Aspergillus fumigatus” (J Nat Prod, 2023)
# Key:
# [1] = system: Clavispora lusitaniae; assay: Antifungal activity against multidrug-resistant Candida lusitaniae 398 assessed as inhibition in fungal growth incubated for 48 hrs by microplate reader analysis; format: functional
# [2] = system: Aspergillus fumigatus; assay: Antifungal activity against Aspergillus fumigatus ATCC MYA-3627 assessed as inhibition in fungal growth incubated for 48 hrs in presence of 0% serum by microplate reader analysis; format: functional
# [3] = system: Aspergillus fumigatus; assay: Antifungal activity against Aspergillus fumigatus NRRL5109 assessed as reduction in fungal growth incubated for 48 hrs by microplate reader analysis; format: functional
# [4] = system: Candida albicans; assay: Antifungal activity against Candida albicans SC5314 assessed as reduction in fungal viability incubated for 48 hrs by microplate reader analysis; format: functional
# [5] = system: Candida albicans; assay: Antifungal activity against Candida albicans ATCC 10231 assessed as reduction in fungal viability incubated for 48 hrs by microplate reader analysis; format: functional
# [6] = system: Kluyveromyces marxianus; assay: Antifungal activity against Candida kefyr 12 assessed as inhibition in fungal growth incubated for 48 hrs by microplate reader analysis; format: functional
# [7] = system: Nakaseomyces glabratus; assay: Antifungal activity against Candida glabrata 16 assessed as inhibition in fungal growth incubated for 48 hrs by microplate reader analysis; format: functional
# [8] = system: Candida albicans; assay: Antifungal activity against Candida albicans 3 assessed as inhibition in fungal growth incubated for 48 hrs by microplate reader analysis; format: functional
# [9] = system: Cryptococcus neoformans; assay: Antifungal activity against Cryptococcus neoformans H99 assessed as inhibition in fungal growth incubated for 48 hrs in presence of 10% serum by microplate reader analysis; format: functional
# [10] = system: Candida albicans; assay: Antifungal activity against Candida albicans SC5314 assessed as inhibition in fungal growth incubated for 48 hrs in presence of 5% serum by microplate reader analysis; format: functional
# [11] = system: Nakaseomyces glabratus; assay: Antifungal activity against Candida glabrata 20 assessed as inhibition in fungal growth incubated for 48 hrs by microplate reader analysis; format: functional
# [12] = system: Paecilomyces lilacinus; assay: Antifungal activity against Paecilomyces lilacinus 165E10 assessed as reduction in fungal viability incubated for 48 hrs by microplate reader analysis; format: functional, Purpureocillium lilacinum
# [13] = system: Candida albicans; assay: Antifungal activity against Candida albicans SC5314 assessed as reduction in fungal growth incubated for 48 hrs by microplate reader analysis; format: functional
# [14] = system: Aspergillus niger; assay: Antifungal activity against Aspergillus niger FGSC A732 assessed as reduction in fungal growth incubated for 48 hrs by microplate reader analysis; format: functional
# [15] = system: Aspergillus flavus; assay: Antifungal activity against Aspergillus flavus NRRL485 assessed as reduction in fungal viability incubated for 48 hrs by microplate reader analysis; format: functional
# [16] = system: [Candida] auris; assay: Antifungal activity against multidrug-resistant Candida auris 387 assessed as inhibition in fungal growth incubated for 48 hrs by microplate reader analysis; format: functional; settings: Candidozyma auris
# [17] = system: Candida parapsilosis; assay: Antifungal activity against Candida parapsilosis 23 assessed as inhibition in fungal growth incubated for 48 hrs by microplate reader analysis; format: functional; settings: Lodderomyces parapsilosis
# [18] = system: Candida albicans; assay: Antifungal activity against Candida albicans 30 assessed as inhibition in fungal growth incubated for 48 hrs by microplate reader analysis; format: functional
# [19] = system: Mucor circinelloides; assay: Antifungal activity against Mucor circinelloides 235C7 assessed as reduction in fungal viability incubated for 48 hrs by microplate reader analysis; format: functional
# [20] = system: [Candida] auris; assay: Antifungal activity against multidrug-resistant Candida auris 386 assessed as inhibition in fungal growth incubated for 48 hrs by microplate reader analysis; format: functional; settings: Candidozyma auris
# [21] = system: Candida parapsilosis; assay: Antifungal activity against Candida parapsilosis ATCC 22019 (Y-12969) assessed as reduction in fungal viability incubated for 48 hrs by microplate reader analysis; format: functional
# [22] = system: Aspergillus fumigatus; assay: Antifungal activity against Aspergillus fumigatus NRRL6113 assessed as reduction in fungal viability incubated for 48 hrs by microplate reader analysis; format: functional
# [23] = system: Nakaseomyces glabratus; assay: Antifungal activity against Candida glabrata 11 assessed as inhibition in fungal growth incubated for 48 hrs by microplate reader analysis; format: functional
# [24] = system: Aspergillus niger; assay: Antifungal activity against Aspergillus niger FGSC A732 assessed as reduction in fungal viability incubated for 48 hrs by microplate reader analysis; format: functional
# [25] = system: Candida albicans; assay: Antifungal activity against Candida albicans 10 assessed as inhibition in fungal growth incubated for 48 hrs by microplate reader analysis; format: functional
# [26] = system: Rhizopus arrhizus; assay: Antifungal activity against Rhizopus oryzae FGSC 9543 assessed as reduction in fungal viability incubated for 48 hrs by microplate reader analysis; format: functional
# [27] = system: Hamigera insecticola; assay: Antifungal activity against Hamigera insecticola NRRL35442 assessed as reduction in fungal growth incubated for 48 hrs by microplate reader analysis; format: functional
# [28] = system: Fusarium solani; assay: Antifungal activity against Fusarium solani 243G2 assessed as reduction in fungal viability incubated for 48 hrs by microplate reader analysis; format: functional
# [29] = system: Cryptococcus neoformans; assay: Antifungal activity against Cryptococcus neoformans H99 assessed as inhibition in fungal growth incubated for 48 hrs in presence of 0% serum by microplate reader analysis; format: functional
# [30] = system: Aspergillus fumigatus; assay: Antifungal activity against Aspergillus fumigatus ATCC MYA-3627 assessed as inhibition in fungal growth incubated for 48 hrs in presence of 5% serum by microplate reader analysis; format: functional
# [31] = system: [Candida] auris; assay: Antifungal activity against multidrug-resistant Candida auris 384 assessed as inhibition in fungal growth incubated for 48 hrs by microplate reader analysis; format: functional; settings: Candidozyma auris
# [32] = system: Kodamaea ohmeri; assay: Antifungal activity against multidrug-resistant Kodamaea ohmeri 396 assessed as inhibition in fungal growth incubated for 48 hrs by microplate reader analysis; format: functional
# [33] = system: Rhizopus arrhizus; assay: Antifungal activity against Rhizopus oryzae FGSC 9543 assessed as reduction in fungal growth incubated for 48 hrs by microplate reader analysis; format: functional
# [34] = system: Hamigera insecticola; assay: Antifungal activity against Hamigera insecticola NRRL35442 assessed as reduction in fungal viability incubated for 48 hrs by microplate reader analysis; format: functional
# [35] = system: [Candida] auris; assay: Antifungal activity against multidrug-resistant Candida auris 381 assessed as inhibition in fungal growth incubated for 48 hrs in presence of 0% serum by microplate reader analysis; format: functional; settings: Candidozyma auris
# [36] = system: [Candida] auris; assay: Antifungal activity against multidrug-resistant Candida auris 388 assessed as inhibition in fungal growth incubated for 48 hrs by microplate reader analysis; format: functional; settings: Candidozyma auris
# [37] = system: Pichia kudriavzevii; assay: Antifungal activity against Candida krusei ATCC 6258 (Y-7179) assessed as reduction in fungal viability incubated for 48 hrs by microplate reader analysis; format: functional
# [38] = system: Candida duobushaemulonii; assay: Antifungal activity against multidrug-resistant Candida duobushaemulonii 394 assessed as inhibition in fungal growth incubated for 48 hrs by microplate reader analysis; format: functional; settings: Candidozyma duobushaemuli
# [39] = system: Candida duobushaemulonii; assay: Antifungal activity against multidrug-resistant Candida duobushaemulonii 392 assessed as inhibition in fungal growth incubated for 48 hrs by microplate reader analysis; format: functional; settings: Candidozyma duobushaemuli
# [40] = system: Candida duobushaemulonii; assay: Antifungal activity against multidrug-resistant Candida duobushaemulonii 391 assessed as inhibition in fungal growth incubated for 48 hrs by microplate reader analysis; format: functional; settings: Candidozyma duobushaemuli
# [41] = system: Saccharomyces cerevisiae; assay: Antifungal activity against multidrug-resistant Saccharomyces cerevisiae 399 assessed as inhibition in fungal growth incubated for 48 hrs by microplate reader analysis; format: functional
# [42] = system: Candida parapsilosis; assay: Antifungal activity against Candida parapsilosis 9 assessed as inhibition in fungal growth incubated for 48 hrs by microplate reader analysis; format: functional; settings: Lodderomyces parapsilosis
# [43] = system: Pichia kudriavzevii; assay: Antifungal activity against Candida krusei 25 assessed as inhibition in fungal growth incubated for 48 hrs by microplate reader analysis; format: functional
# [44] = system: Aspergillus fumigatus; assay: Antifungal activity against Aspergillus fumigatus NRRL5109 assessed as reduction in fungal viability incubated for 48 hrs by microplate reader analysis; format: functional
structure (smiles),measurement,setting,value
CC[C@H](C)C[C@H](C)C[C@H](C)C[C@@H]1NC(=O)[C@H](C(C)C)N(C)C(=O)[C@@H]([C@H](C)CC)OC(=O)[C@H](C(C)(C)O)N(C)C(=O)[C@H](CC(C)C)NC(=O)[C@H](C(C)C)N(C)C(=O)[C@H]([C@H](C)CC)NC(=O)[C@@H]2CCCN2C(=O)CN(C)C1=O,MIC80,[1],2.5 µM
same,MIC80,[2],2.5 µM
same,MFC,[3],5 µM
same,MIC80,[3],2.5 µM
same,MFC<=99.9,[4],1.3 µM
same,MFC<=99.9,[5],1.3 µM
same,MIC80,[6],1.3 µM
same,MIC80,[7],0.3 µM
same,MIC80,[8],2.5 µM
same,MIC80,[9],< 0.2 µM
same,MIC80,[10],0.2 µM
same,MIC80,[11],0.3 µM
same,MFC<=99.9,[12],>10 µM
same,MFC,[13],1.3 µM
same,MIC80,[13],0.3 µM
same,MFC,[14],> 10 µM
same,MIC80,[14],1.3 µM
same,MFC<=99.9,[15],>10 µM
same,MIC80,[16],2.5 µM
same,MIC80,[17],2.5 µM
same,MIC80,[18],5 µM
same,MFC<=99.9,[19],>10 µM
same,MIC80,[20],2.5 µM
same,MFC<=99.9,[21],2.5 µM
same,MFC<=99.9,[22],5 µM
same,MIC80,[23],0.6 µM
same,MFC<=99.9,[24],>10 µM
same,MIC80,[25],2.5 µM
same,MFC<=99.9,[26],>10 µM
same,MFC,[27],5 µM
same,MIC80,[27],0.6 µM
same,MFC<=99.9,[28],2.5 µM
same,MIC80,[29],0.6 µM
same,MIC80,[30],2.5 µM
same,MIC80,[31],2.5 µM
same,MIC80,[32],2.5 µM
same,MFC,[33],> 10 µM
same,MIC80,[33],> 10 µM
same,MFC<=99.9,[34],5 µM
same,MIC80,[35],1.3 µM
same,MIC80,[36],2.5 µM
same,MFC<=99.9,[37],2.5 µM
same,MIC80,[38],2.5 µM
same,MIC80,[39],2.5 µM
same,MIC80,[40],2.5 µM
same,MIC80,[41],2.5 µM
same,MIC80,[42],2.5 µM
same,MIC80,[43],1.3 µM
same,MFC<=99.9,[44],5 µM
C[C@@H]1[C@H](O)[C@@H](C)/C=C/C=C/C=C/C=C/C=C/C=C/C=C/[C@H](O[C@@H]2O[C@H](C)[C@@H](O)[C@H](N)[C@@H]2O)C[C@@H]2O[C@](O)(C[C@@H](O)C[C@@H](O)[C@H](O)CC[C@@H](O)C[C@@H](O)CC(=O)O[C@H]1C)C[C@H](O)[C@H]2C(=O)O [AMPHOTERICIN B],MIC80,[1],0.6 µM
same,MIC80,[2],2.5 µM
same,MFC,[3],5 µM
same,MIC80,[3],2.5 µM
same,MFC<=99.9,[4],2.5 µM
same,MFC<=99.9,[5],2.5 µM
same,MIC80,[6],0.3 µM
same,MIC80,[7],0.2 µM
same,MIC80,[8],0.6 µM
same,MIC80,[9],< 0.2 µM
same,MIC80,[10],< 0.2 µM
same,MIC80,[11],0.6 µM
same,MFC<=99.9,[12],>10 µM
same,MFC,[13],2.5 µM
same,MIC80,[13],0.6 µM
same,MFC,[14],2.5 µM
same,MIC80,[14],0.6 µM
same,MFC<=99.9,[15],10 µM
same,MIC80,[16],2.5 µM
same,MIC80,[17],1.3 µM
same,MIC80,[18],2.5 µM
same,MFC<=99.9,[19],1.3 µM
same,MIC80,[20],2.5 µM
same,MFC<=99.9,[21],5 µM
same,MFC<=99.9,[22],10 µM
same,MIC80,[23],0.3 µM
same,MFC<=99.9,[24],2.5 µM
same,MIC80,[25],0.6 µM
same,MFC<=99.9,[26],0.3 µM
same,MFC,[27],10 µM
same,MIC80,[27],2.5 µM
same,MFC<=99.9,[28],1.3 µM
same,MIC80,[29],1.3 µM
same,MIC80,[30],< 0.1 µM
same,MIC80,[31],2.5 µM
same,MIC80,[32],1.3 µM
same,MFC,[33],0.3 µM
same,MIC80,[33],0.3 µM
same,MFC<=99.9,[34],10 µM
same,MIC80,[35],2.5 µM
same,MIC80,[36],2.5 µM
same,MFC<=99.9,[37],5 µM
same,MIC80,[38],5 µM
same,MIC80,[39],5 µM
same,MIC80,[40],5 µM
same,MIC80,[41],2.5 µM
same,MIC80,[42],2.5 µM
same,MIC80,[43],1.3 µM
same,MFC<=99.9,[44],5 µM
